Assay results: patent US20140322193A1, “Therapies for Disorders of the Cornea and Conjunctiva” (priority 2011, published 2014)
“Also recorded” adds a separate entry of the source.

Tests used:
[1] = tested on: CBA/J mice; experiment: Mouse BTX-B dry eye model, corneal fluorescein staining (corneal ulceration); format: in vivo; settings: for Corneal fluorescein staining, MEAN, DAY 7: 7 days after BTX-B injection; for Corneal fluorescein staining, MEAN, DAY 7 / Corneal fluorescein staining, MEAN, DAY 14: eye drops twice daily in Refresh Celluvisc (A-438079 20 μM, BBG 20 μM, oxATP 300 μM), grade 0 to 4 scale; for Corneal fluorescein staining, MEAN, DAY 14: 14 days after BTX-B injection; for Corneal fluorescein staining, MEAN, DAY 0: day 0, prior to BTX-B injection (baseline), grade on 0 to 4 scale of Table 2; for Effect on corneal fluorescein staining (in words): days 7 and 14, chosen dose, b.i.d. eye drops
[2] = target: T1, mouse P2X7 receptor (Mus musculus, UniProt Q9Z1M0); settings: British Journal of Pharmacology 2009 157:1203; cited from earlier work
T1 sequence (Q9Z1M0 1-595): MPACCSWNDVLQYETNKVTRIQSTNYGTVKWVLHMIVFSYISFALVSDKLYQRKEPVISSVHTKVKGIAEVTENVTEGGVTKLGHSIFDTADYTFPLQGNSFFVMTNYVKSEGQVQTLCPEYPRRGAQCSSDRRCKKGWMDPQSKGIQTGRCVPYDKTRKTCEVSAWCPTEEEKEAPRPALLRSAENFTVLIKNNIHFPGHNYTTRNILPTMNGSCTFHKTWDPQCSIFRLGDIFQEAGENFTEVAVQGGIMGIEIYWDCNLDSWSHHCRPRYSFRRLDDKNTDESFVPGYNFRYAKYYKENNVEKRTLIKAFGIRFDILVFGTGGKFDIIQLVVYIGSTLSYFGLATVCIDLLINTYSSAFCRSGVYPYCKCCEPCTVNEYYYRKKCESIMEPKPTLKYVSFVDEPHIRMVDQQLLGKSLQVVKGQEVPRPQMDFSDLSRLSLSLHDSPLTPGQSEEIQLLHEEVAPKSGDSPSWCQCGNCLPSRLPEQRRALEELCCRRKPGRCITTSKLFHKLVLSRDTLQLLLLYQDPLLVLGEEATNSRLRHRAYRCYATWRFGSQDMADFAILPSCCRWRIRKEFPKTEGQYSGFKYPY

[3] = Preservation of 1 μM BBG ophthalmic composition in containers at 60° C. for 2 days; format: physicochemical; settings: 1 μM BBG in BSS, PET, polypropylene, polyethylene and glass containers
Description: BSS Sterile Irrigating Solution is obtained from Alcon Laboratories, Ft. Worth, Tex. BBG is obtained from Sigma Aldrich, St. Louis, Mo. With moderate stirring in a homomixer, 856 mg of BBG is added to 1 liter of BSS at room temperature. The mixture is then stirred until the BBG is completely in solution. This solution is a 1 mM stock solution. One ml of the stock solution is then added to one liter of BSS to yield the ophthalmic composition, which is 1 μM BBG in BSS. The ophthalmic composition is filtered through a membrane filter (0.45 μm pore diameter, Millipore), filled in a 15 mL polyethylene terephthalate eye drop container, a polypropylene container, a polyethylene container, and a glass container and preserved at 60° C. for 2 days. The amount of BBG from each container is measured before and after preservation.

Row | SMILES | Corneal fluorescein staining, MEAN, DAY 7 [1] | Corneal fluorescein staining, MEAN, DAY 14 [1] | Corneal fluorescein staining, MEAN, DAY 0 [1] | Effect on corneal fluorescein staining (in words) [1] | IC50 [2] [nM] | Degradation of active ingredient after preservation [3]
1 | Clc1cccc(-c2nnnn2Cc2cccnc2)c1Cl [A-438079] | 1.70 | 2.70 | 0.00 | did not attenuate fluorescein staining |  | 
2 | COc1ccc(CC(=O)NC(N=C(NC#N)Nc2cccc3ncccc23)C(C)(C)C)cc1OC (centres unmarked) [A-740003] |  |  |  |  | ~1000 | 
3 | CCOc1ccc(Nc2ccc(/C(=C3C=C/C(=[N+](/CC)Cc4cccc(S(=O)(=O)[O-])c4)C=C/3C)c3ccc(N(CC)Cc4cccc(S(=O)(=O)[O-])c4)cc3C)cc2)cc1.[Na+] [BBG, Coomassie Brilliant Blue G] | 1.50 | 2.00 | 0.00 | did not attenuate fluorescein staining |  | little degradation
4 | Nc1ncnc2c1ncn2[C@@H](C=O)O[C@@H](C=O)COP(=O)(O)OP(=O)(O)OP(=O)(O)O [oxATP, periodate oxidized ATP] | 0.00 | 0.00 | 0.00 | completely prevented the fluorescein staining; also recorded: remarkably effective in preventing pathology |  | 
